Laboratory results from the Kinase Knowledgebase extract (Sharma et al. 2016).

Experiments:
EGFR (human) = EGFR (human) (UniProt P00533); conditions: kb epidermoid nasopharynx
EGFR = EGFR (UniProt P00533)
Sequence of EGFR (P00533 whole entry, looked up): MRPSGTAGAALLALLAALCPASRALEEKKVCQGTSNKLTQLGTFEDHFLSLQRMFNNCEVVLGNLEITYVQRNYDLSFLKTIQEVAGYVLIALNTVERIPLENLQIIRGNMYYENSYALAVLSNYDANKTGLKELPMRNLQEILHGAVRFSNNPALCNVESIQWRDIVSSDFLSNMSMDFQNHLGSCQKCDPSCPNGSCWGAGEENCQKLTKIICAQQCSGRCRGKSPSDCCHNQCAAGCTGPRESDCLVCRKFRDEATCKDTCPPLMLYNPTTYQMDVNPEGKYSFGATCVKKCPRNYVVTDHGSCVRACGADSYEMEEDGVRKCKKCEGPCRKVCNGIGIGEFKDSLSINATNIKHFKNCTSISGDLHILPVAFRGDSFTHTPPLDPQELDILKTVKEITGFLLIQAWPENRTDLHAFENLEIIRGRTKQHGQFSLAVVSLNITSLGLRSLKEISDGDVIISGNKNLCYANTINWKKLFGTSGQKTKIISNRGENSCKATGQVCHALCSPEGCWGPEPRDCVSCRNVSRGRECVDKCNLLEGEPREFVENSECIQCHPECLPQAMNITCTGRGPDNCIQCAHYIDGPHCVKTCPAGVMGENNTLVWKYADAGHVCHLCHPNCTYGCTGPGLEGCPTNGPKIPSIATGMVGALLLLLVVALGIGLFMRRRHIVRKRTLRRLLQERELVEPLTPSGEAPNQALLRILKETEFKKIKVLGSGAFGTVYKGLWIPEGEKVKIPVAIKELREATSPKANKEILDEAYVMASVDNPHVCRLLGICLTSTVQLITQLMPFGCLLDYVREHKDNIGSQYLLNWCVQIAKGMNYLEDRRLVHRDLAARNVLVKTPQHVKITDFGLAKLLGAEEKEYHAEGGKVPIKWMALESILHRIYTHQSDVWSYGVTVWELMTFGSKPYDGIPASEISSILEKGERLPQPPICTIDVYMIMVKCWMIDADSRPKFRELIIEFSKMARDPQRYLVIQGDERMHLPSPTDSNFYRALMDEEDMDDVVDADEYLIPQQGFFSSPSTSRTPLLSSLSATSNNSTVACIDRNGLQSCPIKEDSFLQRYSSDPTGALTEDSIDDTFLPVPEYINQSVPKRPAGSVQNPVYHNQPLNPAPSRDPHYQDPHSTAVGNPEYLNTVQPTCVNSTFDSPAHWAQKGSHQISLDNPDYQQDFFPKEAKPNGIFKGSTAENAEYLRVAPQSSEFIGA

Sequence of EGFR (human) (P00533 whole entry, looked up): as above

SMILES | IC50 (EGFR (human)) [nM] | IC50 (EGFR) [nM]
COc1cc2c(Nc3cccc(Cl)c3F)ncnc2cc1OC1CCN(C(=O)CO)CC1 | 37 | –
COc1cc2ncnc(Nc3ccc(F)c(Cl)c3)c2cc1CN1CCC[C@@H]1C(=O)NCC#N | 143 | –
COCCC(=O)N1CCC(Oc2cc3ncnc(Nc4cccc(Cl)c4F)c3cc2OC)CC1 | 84 | –
COCCOCC(=O)N1CCC(Oc2cc3ncnc(Nc4cccc(Cl)c4F)c3cc2OC)CC1 | 112 | –
COCC(=O)N1CC[C@@H](Oc2cc3ncnc(Nc4cccc(Cl)c4F)c3cc2OC)C1 | 119 | –
COc1cc2c(Nc3cccc(Cl)c3F)ncnc2cc1OC1CN(C(=O)[C@@H](C)O)C1 | 48 | –
COc1cc2ncnc(Nc3cccc(Cl)c3F)c2cc1CN1CSC[C@H]1C(N)=O | 50 | –
COc1cc2c(Nc3cccc(Cl)c3F)ncnc2cc1OC1CCN(C(=O)CCO)CC1 | 109 | –
COCCN1CCN(Cc2cc3c(Nc4cccc(Cl)c4F)ncnc3cc2OC)C(C(N)=O)C1 (stereo not drawn) | 160 | –
COc1cc2c(Nc3cccc(Cl)c3F)ncnc2cc1OC1CN(C(=O)[C@H](C)O)C1 | 71 | –
COCC(=O)N1CCC(Oc2cc3ncnc(Nc4cccc(Cl)c4F)c3cc2OC)CC1 | 55 | –
COc1cc2c(Nc3cccc(Cl)c3F)ncnc2cc1O[C@@H]1CCN(C(=O)C2CCC(=O)N2)C1 (stereo partly drawn) | 397 | 41
